Read-outs that look alike come from different tables or passages of the source.
Experiments:
[1] = tested on: Bacillus pumilus strain K-1; test: Inhibition of bacterial growth, filter paper on inoculated agar plates; assay type: cell-based; details: for zone of inhibition at 1000 µM / zone of inhibition at 100 µM: Bacillus pumilus, read-out: Diameter of Inhibition
Procedure: Nutrient broth was prepared by mixing 8 grams of BACTO dehydrated nutrient broth per liter of distilled water. […] Samples of the nutrient broth were then inoculated with Bacillus pumilus strain K-1 culture. […]
Nutrient agar was prepared by mixing 23 grams of BACTO nutrient agar per liter of distilled water. The nutrient agar was sterilized in the same way as the nutrient broth. After it has cooled to about 45° C. 250 ml of the nutrient agar solution was aeseptically inoculated with 5 ml of the Bacillus pumilus, K-1 culture prepared in (A), above. Plates of the inoculated nutrient agar were then poured and allowed to harden.
[…] To minimize possible photocatalyzed reactions of the dyes, all preparations were performed under yellow lights and all incubations were performed in the dark.
Schleider and Schuell #740-E filter paper (12.7 mm diameter) was dipped in the dye solution, touched to the side of the beaker to removed excess dye, and placed in the center of the inoculated agar plates (prepared in (B) above). […] The plates were then examined to determine if bacterial growth had been affected by the dye-containing filter paper. […]
Control plates were prepared in which the filter paper contained methanol or a 0.2 molar aqueous solution of phenol. […]

[2] = not told
[3] = tested on: Bacillus pumilus (K-1)
Procedure: This can be accomplished by contacting a given concentration of the dye with the cells, removing the cells from the dye solution and then comparing the optical density (at λmax) of the remaining dye solution with a control containing the original concentration of the dye. The percentage decrease in optical density indicates the percentage of dye which has been bound to the cells.
The culture was collected by centrifugation at 5,000×g. for 10 minutes, and the resultant pellet was washed several times in cold 0.05 M potassium phosphate buffer, pH 7.0. The pellet was resuspended in the buffer solution to a final optical density of 1.0 at 620 nm as measured with a Bausch and Lomb Spectronic 20.
One-tenth ml of dye solution (1 mg/ml in methanol) was added to a tube containing 5 ml of cell suspension described above and a control tube containing 0.05 M potassium phosphate buffer, pH 7.0. All tubes were well agitated using a Vari-Whirl Mixer (Will Scientific Co.) and then centrifuged at 10,000×g. for 10 minutes.
The percent binding of dye to the cells for each dye, was determined by comparison of the density at λmax of the control supernatant sample with the density at λmax of the supernatant of the cell sample.

[4] = K1, 72 h, Tables V and VI, 10^-3 molar, three days
[5] = Tables V and VI, 10^-3 molar, three days
[6] = K1, Table II, 10^-4 molar, 26° C., forty-eight hours

Structure (SMILES): CCN1C(=CC=Cc2oc3cccc(OC(C)=O)c3[n+]2CC)Oc2cccc(OC(C)=O)c21 [7,4,4'-diacetoxy]
- zone of inhibition at 1000 µM [1, 4]: 15 mm

Structure (SMILES): CCN1C(=CC=Cc2oc3cccc(O)c3[n+]2CC)Oc2cccc(O)c21 [7,4,4'-dihydroxy]
- zone of inhibition at 1000 µM [1, 4]: 13 mm

Structure (SMILES): CCN1C(=CC=Cc2oc3ccc(NC(C)=O)cc3[n+]2CC)Oc2ccc(NC(C)=O)cc21 [7,5,5'-acetamido]
- Diameter of Inhibition [1, 5]: None

Structure (SMILES): CCN1C(=CC=Cc2oc3ccc(OC(C)=O)cc3[n+]2CC)Oc2ccc(OC(C)=O)cc21 [7,5,5'-diacetoxy]
- zone of inhibition at 1000 µM [1, 4]: 30.5 mm
- ER [2]: -1.18

Structure (SMILES): CCN1C(=CC=Cc2oc3ccc(Br)cc3[n+]2CC)Oc2ccc(Br)cc21 [7,5,5'-dibromo]
- zone of inhibition at 1000 µM [1, 4]: 22.5 mm

Structure (SMILES): CN1C(=CC=Cc2oc3ccc(C(=O)O)cc3[n+]2C)Oc2ccc(C(=O)O)cc21 [7,5,5'-dicarboxy-N,N'-methyl]
- Diameter of Inhibition [1, 5]: None

Structure (SMILES): CCN1C(=CC=Cc2oc3ccc(Cl)cc3[n+]2CC)Oc2ccc(Cl)cc21 [7,5,5'-dichloro]
- zone of inhibition at 1000 µM [1, 4]: 26.5 mm

Structure (SMILES): CN1C(=CC=Cc2oc3ccc(C#N)cc3[n+]2C)Oc2ccc(C#N)cc21 [7,5,5'-dicyano-N,N'-methyl]
- Diameter of Inhibition [1, 5]: None
- ER [2]: -.99

Structure (SMILES): CCOc1ccc2c(c1)N(CC)C(=CC=Cc1oc3ccc(OCC)cc3[n+]1CC)O2 [7,5,5'-diethoxy]
- zone of inhibition at 1000 µM [1, 4]: 14 mm

Structure (SMILES): CCc1ccc2c(c1)N(CC)C(=CC=Cc1oc3ccc(CC)cc3[n+]1CC)O2 [7,5,5'-diethyl]
- zone of inhibition at 1000 µM [1, 4]: 23 mm

Structure (SMILES): CCN1C(=CC=Cc2oc3ccc(O)cc3[n+]2CC)Oc2ccc(O)cc21 [7,5,5'-dihydroxy]
- zone of inhibition at 1000 µM [1, 4]: 14 mm

Structure (SMILES): CCN1C(=CC=Cc2oc3ccc(OC)cc3[n+]2CC)Oc2ccc(OC)cc21 [7,5,5'-dimethoxy]
- zone of inhibition at 1000 µM [1, 4]: 23.5 mm

Structure (SMILES): CN1C(=CC=Cc2oc3ccc([N+](=O)[O-])cc3[n+]2C)Oc2ccc([N+](=O)[O-])cc21 [7,5,5'-dinitro-N,N'-methyl]
- Diameter of Inhibition [1, 5]: None

Structure (SMILES): CCN1C(=CC=Cc2oc3ccc(-c4ccccc4)cc3[n+]2CC)Oc2ccc(-c3ccccc3)cc21 [7,5,5'-diphenyl]
- Diameter of Inhibition [1, 5]: None

Structure (SMILES): CCN1C(=CC=Cc2oc3ccc(S(=O)(=O)[O-])cc3[n+]2CC)Oc2ccc(S(=O)(=O)O)cc21 [7,5,5'-disulfo]
- Diameter of Inhibition [1, 5]: None
- ER [2]: -1.27

Structure (SMILES): CCOc1ccc2c(c1)OC(=CC=Cc1oc3cc(OCC)ccc3[n+]1CC)N2CC [7,6,6'-diethoxy]
- zone of inhibition at 1000 µM [1, 4]: 16 mm

Structure (SMILES): CN1C(=CC=Cc2oc3cc([N+](=O)[O-])ccc3[n+]2C)Oc2cc([N+](=O)[O-])ccc21 [7,6,6'-dinitro-N,N'-methyl]
- Diameter of Inhibition [1, 5]: None

Structure (SMILES): CCN1C(=CC=Cc2oc3cc(-c4ccccc4)ccc3[n+]2CC)Oc2cc(-c3ccccc3)ccc21 [7,6,6'-diphenyl]
- Diameter of Inhibition [1, 5]: None

Structure (SMILES): CCN1C(=CC=Cc2oc3c(-c4ccccc4)cccc3[n+]2CC)Oc2c(-c3ccccc3)cccc21 [7,7,7'-diphenyl]
- Diameter of Inhibition [1, 5]: None

Structure (SMILES): CCN1C(=CC=Cc2sc3cccc(OC)c3[n+]2CC)Sc2cccc(OC)c21 [17,4,4'-dimethoxy]
- zone of inhibition at 1000 µM [1, 4]: 17.5 mm

Structure (SMILES): CCN1C(=CC=Cc2sc3cc(OC)c(OC)cc3[n+]2CC)Sc2cc(OC)c(OC)cc21 [17,5,5',6,6'-tetramethoxy]
- Diameter of Inhibition [1, 5]: None

Structure (SMILES): CCN1C(=CC=Cc2sc3ccc(OC(C)=O)cc3[n+]2CC)Sc2ccc(OC(C)=O)cc21 [17,5,5'-diacetoxy]
- zone of inhibition at 1000 µM [1, 4]: 15 mm

Structure (SMILES): CCN1C(=CC=Cc2sc3ccc(Br)cc3[n+]2CC)Sc2ccc(Br)cc21 [17,5,5'-dibromo]
- zone of inhibition at 1000 µM [1, 4]: 13.5 mm

Structure (SMILES): CCN1C(=CC=Cc2sc3ccc(OC)cc3[n+]2CC)Sc2ccc(OC)cc21 [17,5,5'-dimethoxy]
- zone of inhibition at 1000 µM [1, 4]: 14.5 mm

Structure (SMILES): CCN1C(=CC=Cc2sc3ccc(C)cc3[n+]2CC)Sc2ccc(C)cc21 [17,5,5'-dimethyl]
- zone of inhibition at 1000 µM [1, 4]: 14 mm

Structure (SMILES): CCN1C(=CC=Cc2sc3cc(NC(C)=O)ccc3[n+]2CC)Sc2cc(NC(C)=O)ccc21 [17,6,6'-diacetamido]
- Diameter of Inhibition [1, 5]: None

Structure (SMILES): CCN1C(=CC=Cc2sc3cc(OC(C)=O)ccc3[n+]2CC)Sc2cc(OC(C)=O)ccc21 [17,6,6'-diacetoxy]
- zone of inhibition at 1000 µM [1, 4]: 17 mm

Structure (SMILES): CN1C(=CC=Cc2sc3cc(N)ccc3[n+]2C)Sc2cc(N)ccc21 [17,6,6'-diamino-N,N'-dimethyl]
- Diameter of Inhibition [1, 5]: None

Structure (SMILES): CCN1C(=CC=Cc2sc3cc(Br)ccc3[n+]2CC)Sc2cc(Br)ccc21 [17,6,6'-dibromo]
- Diameter of Inhibition [1, 5]: None
- ER [2]: -.88

Structure (SMILES): CCN1C(=CC=Cc2sc3cc(Cl)ccc3[n+]2CC)Sc2cc(Cl)ccc21 [17,6,6'-dichloro]
- zone of inhibition at 1000 µM [1, 4]: 14 mm
- ER [2]: -.87

Structure (SMILES): CN1C(=CC=Cc2sc3cc(C#N)ccc3[n+]2C)Sc2cc(C#N)ccc21 [17,6,6'-dicyano-N,N'-dimethyl]
- Diameter of Inhibition [1, 5]: None

Structure (SMILES): CCOc1ccc2c(c1)SC(=CC=Cc1sc3cc(OCC)ccc3[n+]1CC)N2CC [17,6,6'-diethoxy]
- zone of inhibition at 1000 µM [1, 4]: 15 mm

Structure (SMILES): CCN1C(=CC=Cc2sc3cc(F)ccc3[n+]2CC)Sc2cc(F)ccc21 [17,6,6'-difluoro]
- zone of inhibition at 1000 µM [1, 4]: 18 mm
- ER [2]: -1.06

Structure (SMILES): CCN1C(=CC=Cc2sc3cc(O)ccc3[n+]2CC)Sc2cc(O)ccc21 [17,6,6'-dihydroxy]
- zone of inhibition at 1000 µM [1, 4]: 15.5 mm

Structure (SMILES): CCN1C(=CC=Cc2sc3cc(OC)ccc3[n+]2CC)Sc2cc(OC)ccc21 [17,6,6'-dimethoxy]
- zone of inhibition at 1000 µM [1, 4]: 15 mm

Structure (SMILES): CCN1C(=CC=Cc2sc3cc(C)ccc3[n+]2CC)Sc2cc(C)ccc21 [17,6,6'-dimethyl]
- zone of inhibition at 1000 µM [1, 4]: 15 mm

Structure (SMILES): CCN1C(=CC=Cc2sc3cc(S(=O)(=O)O)ccc3[n+]2CC)Sc2cc(S(=O)(=O)[O-])ccc21 [17,6,6'-disulfo]
- Diameter of Inhibition [1, 5]: None

Structure (SMILES): CCN1C(=CC=Cc2sc3c(OC)cccc3[n+]2CC)Sc2c(OC)cccc21 [17,7,7'-dimethoxy]
- zone of inhibition at 1000 µM [1, 4]: 14.5 mm

Structure (SMILES): CCN1C(=CC=Cc2sc3c(N(C)C)cccc3[n+]2CC)Sc2c(N(C)C)cccc21 [17,7,7'-dimethylamino]
- zone of inhibition at 1000 µM [1, 4]: 14 mm

Structure (SMILES): CCN1C(=CC=Cc2sc3cc(I)ccc3[n+]2CC)Sc2cc(I)ccc21 [17, 6.6'-diiodo]
- Diameter of Inhibition [1, 5]: None
- ER [2]: -.84

Structure (SMILES): CCN1C(=CC=Cc2sc3ccccc3[n+]2CC)Sc2ccccc21 [17, ClO4^-]
- zone of inhibition at 1000 µM ([1]; K1, 72 h, Table IV, 10^-3 molar, three days, differing anions): 19 mm

Structure (SMILES): CCN1C(=Cc2sc3ccc4ccccc4c3[n+]2CC)Sc2ccc3ccccc3c21 [Dye 2]
- Activity Rating [1]: 0
- Diameter of Inhibition ([1]; Table II, 10^-4 molar, 26° C., forty-eight hours): None
- Diameter of Inhibition ([1]; Table IX, 10^-3 M): None
- Diameter of Inhibition ([1]; Table IX, 10^-4 M): None
- % Bound [3]: 31.8%
- ER [2]: -1.60
- reduction potential (ER) [2]: -1.60 volts

Structure (SMILES): CCN1C(=CC=Cc2oc3ccc(S(=O)(=O)O)cc3[n+]2CC)Oc2ccc(S(=O)(=O)[O-])cc21 [Dye 6]
- Activity Rating [1]: 0
- Diameter of Inhibition ([1]; Table IX, 10^-3 M): None
- % Bound [3]: 3.3%
- reduction potential (ER) [2]: -1.27 volts

Structure (SMILES): CCN1C(=CC=Cc2oc3cc(S(=O)(=O)O)ccc3[n+]2CC)Oc2cc(S(=O)(=O)[O-])ccc21 [Dye 8]
- Activity Rating [1]: 0
- Diameter of Inhibition ([1]; Table IX, 10^-3 M): None
- % Bound [3]: 2.6%
- reduction potential (ER) [2]: -1.26 volts

Structure (SMILES): CCN1C(=CC=Cc2oc3cc(Cl)ccc3[n+]2CC)Oc2cc(Cl)ccc21 [Dye 9]
- Activity Rating [1]: 71
- zone of inhibition at 1000 µM ([1]; K1, Table IX, 10^-3 M): 30.5 mm
- % Bound [3]: 95.1%
- ER [2]: -1.18
- reduction potential (ER) [2]: -1.18 volts

Structure (SMILES): CCN1C(=CC=Cc2oc3ccc(OC(C)=O)cc3[n+]2CC)Oc2ccc(OC(C)=O)cc21 [Dye 10]
- Activity Rating [1]: 80
- zone of inhibition at 1000 µM ([1]; K1, Table IX, 10^-3 M): 28.5 mm
- % Bound [3]: 68.8%
- ER [2]: -1.17
- reduction potential (ER) [2]: -1.17 volts

Structure (SMILES): CCN1C(=CC(C)=Cc2sc3ccccc3[n+]2CC)Sc2ccccc21 [Dye 11]
- Activity Rating [1]: 25
- zone of inhibition at 100 µM [1, 6]: 18 mm
- zone of inhibition at 100 µM ([1]; K1, Table IX, 10^-4 M): 18 mm
- % Bound [3]: 98.9%
- ER [2]: -1.16
- reduction potential (ER) [2]: -1.16 volts

Structure (SMILES): CCN1C(=Cc2sc3ccccc3[n+]2C)C=Cc2ccccc21 [Dye 14]
- Activity Rating [1]: 11
- zone of inhibition at 100 µM [1, 6]: 15 mm
- zone of inhibition at 100 µM ([1]; K1, Table IX, 10^-4 M): 15 mm
- % Bound [3]: 58.3%
- ER [2]: -1.08
- reduction potential (ER) [2]: -1.08 volts

Source: patent US4232121A, “Process for selecting methine dyes which inhibit cell growth” (Eastman Kodak Company, priority 1978, dated 1980)
